Target: T1, Steroid hormone receptor ERR1 (Homo sapiens, UniProt P11474)
T1 sequence (P11474 whole entry): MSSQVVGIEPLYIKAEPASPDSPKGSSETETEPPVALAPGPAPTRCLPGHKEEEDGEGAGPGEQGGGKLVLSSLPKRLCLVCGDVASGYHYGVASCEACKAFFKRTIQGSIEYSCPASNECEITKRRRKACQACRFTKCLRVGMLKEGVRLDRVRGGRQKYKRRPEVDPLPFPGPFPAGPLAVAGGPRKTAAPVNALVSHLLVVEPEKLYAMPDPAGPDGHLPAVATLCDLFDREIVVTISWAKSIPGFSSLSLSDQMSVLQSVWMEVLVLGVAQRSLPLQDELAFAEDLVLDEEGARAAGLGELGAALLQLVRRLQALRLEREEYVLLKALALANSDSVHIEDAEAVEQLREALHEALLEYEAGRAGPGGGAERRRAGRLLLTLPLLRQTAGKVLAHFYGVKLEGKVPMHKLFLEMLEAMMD
Assay: Inhibition of fluorescien-conjugated coactivator PGC1a binding to ERRalpha (unknown origin) after 1 hr by TR-FRET assay
Conditions: not given

SMILES | IC50 [nM]
CN(C)CCCOc1ccc(/C(=C(/CCCO)c2ccccc2)c2ccc(O)cc2)cc1.Cl | > 10000
CN(C)CCOc1ccc(/C(=C(/CCC(F)F)c2ccccc2)c2ccc(O)cc2)cc1.Cl | 8100
CCN(CC)CCOc1ccc(/C(=C(/CCCO)c2ccccc2)c2ccc(O)cc2)cc1.Cl | > 10000
CN(C)CCOc1ccc(/C(=C(/CCCF)c2ccccc2)c2ccc(O)cc2)cc1.Cl | 8010

Target: T2, CYP1A2 (Homo sapiens, UniProt P05177)
T2 sequence (P05177 whole entry): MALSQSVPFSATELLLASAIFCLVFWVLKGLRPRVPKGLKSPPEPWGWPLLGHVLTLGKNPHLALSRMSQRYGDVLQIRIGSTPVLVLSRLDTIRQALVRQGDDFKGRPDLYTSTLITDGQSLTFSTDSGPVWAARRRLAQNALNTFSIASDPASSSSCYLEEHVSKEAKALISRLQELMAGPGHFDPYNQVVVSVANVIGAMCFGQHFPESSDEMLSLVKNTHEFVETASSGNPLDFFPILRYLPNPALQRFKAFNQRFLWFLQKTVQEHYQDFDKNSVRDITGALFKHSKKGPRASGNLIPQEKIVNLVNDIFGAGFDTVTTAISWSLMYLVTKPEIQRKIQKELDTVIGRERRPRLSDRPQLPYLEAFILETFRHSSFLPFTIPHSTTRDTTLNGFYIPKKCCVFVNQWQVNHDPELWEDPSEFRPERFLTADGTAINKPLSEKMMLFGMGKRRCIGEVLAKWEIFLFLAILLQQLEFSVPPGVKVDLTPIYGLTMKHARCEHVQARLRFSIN
Assay: Inhibition of CYP1A2 in human liver microsomes assessed as remaining activity by measuring phenacetin O-deethylase activity at 10 uM pre-incubated for 5 mins followed by NADPH regenerating system addition by LC-MS/MS analysis relative to control
Assay type: ADME
Conditions: probe phenacetin (O-deethylation), read-out: Activity

SMILES | activity at 10 µM [%]
CN(C)CCCOc1ccc(/C(=C(/CCCO)c2ccccc2)c2ccc(O)cc2)cc1.Cl | 96
CN(C)CCOc1ccc(/C(=C(/CCC(F)F)c2ccccc2)c2ccc(O)cc2)cc1.Cl | 14
CCN(CC)CCOc1ccc(/C(=C(/CCCO)c2ccccc2)c2ccc(O)cc2)cc1.Cl | 82
CN(C)CCOc1ccc(/C(=C(/CCCF)c2ccccc2)c2ccc(O)cc2)cc1.Cl | > 100

Target: T3, Steroid hormone receptor ERR2 (Homo sapiens, UniProt O95718)
T3 sequence (O95718 whole entry): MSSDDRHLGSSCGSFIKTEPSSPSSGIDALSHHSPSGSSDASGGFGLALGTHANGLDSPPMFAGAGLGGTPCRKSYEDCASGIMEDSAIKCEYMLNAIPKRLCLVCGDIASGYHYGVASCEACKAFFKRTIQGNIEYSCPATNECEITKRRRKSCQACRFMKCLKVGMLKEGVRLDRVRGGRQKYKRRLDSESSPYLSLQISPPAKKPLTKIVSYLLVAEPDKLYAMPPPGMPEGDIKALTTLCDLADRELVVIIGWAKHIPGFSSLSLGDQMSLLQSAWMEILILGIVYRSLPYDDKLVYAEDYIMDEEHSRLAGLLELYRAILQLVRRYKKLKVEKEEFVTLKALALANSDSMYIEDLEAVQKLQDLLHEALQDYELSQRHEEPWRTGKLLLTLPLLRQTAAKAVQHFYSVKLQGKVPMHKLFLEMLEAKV
Assay: Inhibition of fluorescien-conjugated coactivator PGC1a binding to ERRbeta (unknown origin) after 1 hr by TR-FRET assay
Conditions: not given

SMILES | IC50 [nM]
CN(C)CCCOc1ccc(/C(=C(/CCCO)c2ccccc2)c2ccc(O)cc2)cc1.Cl | > 10000
CN(C)CCOc1ccc(/C(=C(/CCC(F)F)c2ccccc2)c2ccc(O)cc2)cc1.Cl | > 10000
CCN(CC)CCOc1ccc(/C(=C(/CCCO)c2ccccc2)c2ccc(O)cc2)cc1.Cl | > 10000
CN(C)CCOc1ccc(/C(=C(/CCCF)c2ccccc2)c2ccc(O)cc2)cc1.Cl | 722

Target: T4, Estrogen receptor (Homo sapiens, UniProt P03372)
T4 sequence (P03372 whole entry): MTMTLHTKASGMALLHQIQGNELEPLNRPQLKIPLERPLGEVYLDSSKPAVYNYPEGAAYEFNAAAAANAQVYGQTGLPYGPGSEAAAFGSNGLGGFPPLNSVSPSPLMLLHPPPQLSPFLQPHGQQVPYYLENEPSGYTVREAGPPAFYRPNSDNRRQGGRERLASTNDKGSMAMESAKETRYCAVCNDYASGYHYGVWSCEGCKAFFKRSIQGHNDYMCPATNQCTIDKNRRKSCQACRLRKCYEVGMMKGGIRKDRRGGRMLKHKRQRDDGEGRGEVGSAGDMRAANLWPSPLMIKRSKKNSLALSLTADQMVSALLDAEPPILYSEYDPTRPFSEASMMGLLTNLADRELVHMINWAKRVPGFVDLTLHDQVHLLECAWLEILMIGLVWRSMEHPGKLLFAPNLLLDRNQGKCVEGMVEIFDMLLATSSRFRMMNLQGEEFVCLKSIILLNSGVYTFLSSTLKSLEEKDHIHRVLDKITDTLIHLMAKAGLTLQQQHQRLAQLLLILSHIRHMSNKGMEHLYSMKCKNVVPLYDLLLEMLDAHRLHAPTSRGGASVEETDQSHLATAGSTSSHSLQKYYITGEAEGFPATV
Assay: not given
Conditions: not given

SMILES | IC50 [nM]
CCN(CC)CCOc1ccc(/C(=C(/CCCO)c2ccccc2)c2ccc(O)cc2)cc1.Cl | 875

Target: CYP2C9 (Homo sapiens, UniProt P11712)
Assay: Inhibition of CYP2C9 in human liver microsomes assessed as remaining activity by measuring tolbutamide 4-hydroxylase activity at 10 uM pre-incubated for 5 mins followed by NADPH regenerating system addition by LC-MS/MS analysis relative to control
Assay type: ADME
Conditions: probe tolbutamide (4-hydroxylation), read-out: Activity

Sequence of CYP2C9 (P11712 whole entry): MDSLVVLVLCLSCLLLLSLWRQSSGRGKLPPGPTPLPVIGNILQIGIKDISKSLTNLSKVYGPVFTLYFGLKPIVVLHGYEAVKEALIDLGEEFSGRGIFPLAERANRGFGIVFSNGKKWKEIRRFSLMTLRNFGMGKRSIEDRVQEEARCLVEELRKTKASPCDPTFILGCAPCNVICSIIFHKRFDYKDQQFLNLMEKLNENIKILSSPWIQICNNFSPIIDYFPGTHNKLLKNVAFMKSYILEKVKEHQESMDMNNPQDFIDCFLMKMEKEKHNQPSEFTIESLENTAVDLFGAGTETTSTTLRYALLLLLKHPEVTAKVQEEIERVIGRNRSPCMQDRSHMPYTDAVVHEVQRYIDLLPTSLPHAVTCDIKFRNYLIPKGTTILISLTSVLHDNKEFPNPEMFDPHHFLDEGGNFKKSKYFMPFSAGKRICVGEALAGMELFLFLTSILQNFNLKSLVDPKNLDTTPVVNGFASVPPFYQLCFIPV

SMILES | activity at 10 µM [%]
CN(C)CCCOc1ccc(/C(=C(/CCCO)c2ccccc2)c2ccc(O)cc2)cc1.Cl | 90
CN(C)CCOc1ccc(/C(=C(/CCC(F)F)c2ccccc2)c2ccc(O)cc2)cc1.Cl | 60
CCN(CC)CCOc1ccc(/C(=C(/CCCO)c2ccccc2)c2ccc(O)cc2)cc1.Cl | 90
CN(C)CCOc1ccc(/C(=C(/CCCF)c2ccccc2)c2ccc(O)cc2)cc1.Cl | 99

Target: CYP2C19 (Homo sapiens, UniProt P33261)
Assay: Inhibition of CYP2C19 in human liver microsomes assessed as remaining activity by measuring S-mephenytoin 4-hydroxylase activity at 10 uM pre-incubated for 5 mins followed by NADPH regenerating system addition by LC-MS/MS analysis relative to control
Assay type: ADME
Conditions: probe S-mephenytoin (4-hydroxylation), read-out: Activity

Sequence of CYP2C19 (P33261 whole entry): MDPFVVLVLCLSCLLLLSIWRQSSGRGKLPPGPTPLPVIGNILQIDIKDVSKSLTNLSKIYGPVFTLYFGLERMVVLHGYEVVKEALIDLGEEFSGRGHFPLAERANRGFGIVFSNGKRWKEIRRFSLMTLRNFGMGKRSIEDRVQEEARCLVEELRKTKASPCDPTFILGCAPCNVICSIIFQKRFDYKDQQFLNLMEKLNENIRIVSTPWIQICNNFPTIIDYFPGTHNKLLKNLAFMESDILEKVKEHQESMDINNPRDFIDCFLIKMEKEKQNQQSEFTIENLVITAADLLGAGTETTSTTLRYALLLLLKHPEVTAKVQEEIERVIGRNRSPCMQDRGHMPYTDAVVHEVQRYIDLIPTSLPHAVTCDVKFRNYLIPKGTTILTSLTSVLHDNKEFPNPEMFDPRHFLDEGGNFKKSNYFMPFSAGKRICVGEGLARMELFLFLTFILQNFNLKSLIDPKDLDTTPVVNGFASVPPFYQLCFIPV

SMILES | activity at 10 µM [%]
CN(C)CCCOc1ccc(/C(=C(/CCCO)c2ccccc2)c2ccc(O)cc2)cc1.Cl | 64
CN(C)CCOc1ccc(/C(=C(/CCC(F)F)c2ccccc2)c2ccc(O)cc2)cc1.Cl | 11
CCN(CC)CCOc1ccc(/C(=C(/CCCO)c2ccccc2)c2ccc(O)cc2)cc1.Cl | 70
CN(C)CCOc1ccc(/C(=C(/CCCF)c2ccccc2)c2ccc(O)cc2)cc1.Cl | 72

Target: CYP2D6 (Homo sapiens, UniProt P10635)
Assay: Inhibition of CYP2D6 in human liver microsomes assessed as remaining activity by measuring dextromethorphan O-demethylase activity at 10 uM pre-incubated for 5 mins followed by NADPH regenerating system addition by LC-MS/MS analysis relative to control
Assay type: ADME
Conditions: probe dextromethorphan (O-demethylation), read-out: Activity

Sequence of CYP2D6 (P10635 whole entry): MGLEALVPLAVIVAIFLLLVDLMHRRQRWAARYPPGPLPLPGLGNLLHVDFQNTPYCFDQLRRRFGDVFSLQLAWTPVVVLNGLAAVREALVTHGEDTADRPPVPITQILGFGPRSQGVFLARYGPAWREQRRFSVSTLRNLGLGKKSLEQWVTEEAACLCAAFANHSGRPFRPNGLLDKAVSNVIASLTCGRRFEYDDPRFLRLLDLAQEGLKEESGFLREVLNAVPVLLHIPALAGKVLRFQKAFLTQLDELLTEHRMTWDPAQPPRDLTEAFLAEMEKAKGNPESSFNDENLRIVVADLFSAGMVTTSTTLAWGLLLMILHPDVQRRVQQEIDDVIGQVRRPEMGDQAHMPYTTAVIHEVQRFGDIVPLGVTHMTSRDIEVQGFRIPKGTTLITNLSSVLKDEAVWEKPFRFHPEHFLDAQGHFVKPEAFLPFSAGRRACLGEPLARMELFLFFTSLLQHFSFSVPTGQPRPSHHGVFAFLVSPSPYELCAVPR

SMILES | activity at 10 µM [%]
CN(C)CCCOc1ccc(/C(=C(/CCCO)c2ccccc2)c2ccc(O)cc2)cc1.Cl | 93
CN(C)CCOc1ccc(/C(=C(/CCC(F)F)c2ccccc2)c2ccc(O)cc2)cc1.Cl | 12
CCN(CC)CCOc1ccc(/C(=C(/CCCO)c2ccccc2)c2ccc(O)cc2)cc1.Cl | 98
CN(C)CCOc1ccc(/C(=C(/CCCF)c2ccccc2)c2ccc(O)cc2)cc1.Cl | > 100

Target: CYP3A4 (Homo sapiens, UniProt P08684)
Assay: Inhibition of CYP3A4 in human liver microsomes assessed as remaining activity by measuring midazolam 1'-hydroxylase activity at 10 uM pre-incubated for 5 mins followed by NADPH regenerating system addition by LC-MS/MS analysis relative to control
Assay type: ADME
Conditions: probe midazolam (1'-hydroxylation), read-out: Activity

Sequence of CYP3A4 (P08684 whole entry): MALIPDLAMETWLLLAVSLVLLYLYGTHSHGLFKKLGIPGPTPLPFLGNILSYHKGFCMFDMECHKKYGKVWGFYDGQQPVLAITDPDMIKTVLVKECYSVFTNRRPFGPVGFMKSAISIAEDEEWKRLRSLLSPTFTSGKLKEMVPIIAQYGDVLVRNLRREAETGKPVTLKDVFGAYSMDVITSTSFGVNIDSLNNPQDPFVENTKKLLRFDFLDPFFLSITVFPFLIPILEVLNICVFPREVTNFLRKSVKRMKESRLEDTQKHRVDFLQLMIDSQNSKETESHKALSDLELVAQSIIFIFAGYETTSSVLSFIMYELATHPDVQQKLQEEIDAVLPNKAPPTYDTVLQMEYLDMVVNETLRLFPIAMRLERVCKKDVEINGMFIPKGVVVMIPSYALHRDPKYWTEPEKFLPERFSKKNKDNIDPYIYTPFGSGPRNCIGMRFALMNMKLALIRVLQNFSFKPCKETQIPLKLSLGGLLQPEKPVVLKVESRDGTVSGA

SMILES | activity at 10 µM [%]
CN(C)CCCOc1ccc(/C(=C(/CCCO)c2ccccc2)c2ccc(O)cc2)cc1.Cl | 79
CN(C)CCOc1ccc(/C(=C(/CCC(F)F)c2ccccc2)c2ccc(O)cc2)cc1.Cl | 11
CCN(CC)CCOc1ccc(/C(=C(/CCCO)c2ccccc2)c2ccc(O)cc2)cc1.Cl | 93
CN(C)CCOc1ccc(/C(=C(/CCCF)c2ccccc2)c2ccc(O)cc2)cc1.Cl | 93

Test system: not listed separately
Assay: Metabolic stability in dog liver microsomes assessed as compound remaining at 1 uM after 30 mins in presence of NADPH by LC-MS/MS analysis
Assay type: ADME, Canis lupus familiaris
Conditions: read-out: Stability

SMILES | remaining at 0.5 h, 1 µM [%]
CN(C)CCCOc1ccc(/C(=C(/CCCO)c2ccccc2)c2ccc(O)cc2)cc1.Cl | 19
CN(C)CCOc1ccc(/C(=C(/CCC(F)F)c2ccccc2)c2ccc(O)cc2)cc1.Cl | 73
CCN(CC)CCOc1ccc(/C(=C(/CCCO)c2ccccc2)c2ccc(O)cc2)cc1.Cl | 22
CN(C)CCOc1ccc(/C(=C(/CCCF)c2ccccc2)c2ccc(O)cc2)cc1.Cl | 21

Test system: not listed separately
Assay: Permeability of the compound in PBS at pH 7.4 at 10 uM after 5 hrs by LC-MS/MS analysis
Assay type: ADME
Conditions: not told, read-out: permeability

SMILES | Papp at 5 h, 10 µM [×10⁻⁶ cm/s]
CN(C)CCCOc1ccc(/C(=C(/CCCO)c2ccccc2)c2ccc(O)cc2)cc1.Cl | 0.36
CN(C)CCOc1ccc(/C(=C(/CCC(F)F)c2ccccc2)c2ccc(O)cc2)cc1.Cl | 0.54
CCN(CC)CCOc1ccc(/C(=C(/CCCO)c2ccccc2)c2ccc(O)cc2)cc1.Cl | 1.02
CN(C)CCOc1ccc(/C(=C(/CCCF)c2ccccc2)c2ccc(O)cc2)cc1.Cl | 2.12

Target: T5, Estrogen-related receptor gamma (Homo sapiens, UniProt P62508)
T5 sequence (P62508 whole entry): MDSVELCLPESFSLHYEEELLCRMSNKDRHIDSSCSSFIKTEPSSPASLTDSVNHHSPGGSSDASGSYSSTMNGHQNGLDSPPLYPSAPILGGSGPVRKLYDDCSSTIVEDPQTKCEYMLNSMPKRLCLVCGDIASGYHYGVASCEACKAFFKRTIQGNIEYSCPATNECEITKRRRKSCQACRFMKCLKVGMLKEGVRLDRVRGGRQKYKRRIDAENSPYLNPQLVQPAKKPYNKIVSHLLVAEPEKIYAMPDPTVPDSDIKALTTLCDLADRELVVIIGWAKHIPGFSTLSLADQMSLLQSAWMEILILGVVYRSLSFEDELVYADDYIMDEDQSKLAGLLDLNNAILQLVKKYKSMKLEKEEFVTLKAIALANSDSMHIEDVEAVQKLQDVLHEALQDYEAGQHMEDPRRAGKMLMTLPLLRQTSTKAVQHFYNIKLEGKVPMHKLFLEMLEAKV
Assay: not given
Conditions: not given

SMILES | IC50 [nM]
CN(C)CCCOc1ccc(/C(=C(/CCCO)c2ccccc2)c2ccc(O)cc2)cc1.Cl | 90
CCN(CC)CCOc1ccc(/C(=C(/CCCO)c2ccccc2)c2ccc(O)cc2)cc1.Cl | 180
CN(C)CCOc1ccc(/C(=C(/CCCF)c2ccccc2)c2ccc(O)cc2)cc1.Cl | 20

Target: T5, Estrogen-related receptor gamma
Assay: not given
Conditions: not given
Remark: another data set of the same source

SMILES | IC50 [nM]
CN(C)CCCOc1ccc(/C(=C(/CCCO)c2ccccc2)c2ccc(O)cc2)cc1.Cl | 58
CN(C)CCOc1ccc(/C(=C(/CCC(F)F)c2ccccc2)c2ccc(O)cc2)cc1.Cl | 111
CCN(CC)CCOc1ccc(/C(=C(/CCCO)c2ccccc2)c2ccc(O)cc2)cc1.Cl | 79
CN(C)CCOc1ccc(/C(=C(/CCCF)c2ccccc2)c2ccc(O)cc2)cc1.Cl | 48

Test system: not listed separately
Assay: in vitro
Conditions: human, liver microsomes
Description: Metabolic stability in human liver microsomes assessed as compound remaining at 1 uM after 30 mins in presence of NADPH by LC-MS/MS analysis

SMILES | remaining at 0.5 h, 1 µM [%]
CN(C)CCCOc1ccc(/C(=C(/CCCO)c2ccccc2)c2ccc(O)cc2)cc1.Cl | 72
CN(C)CCOc1ccc(/C(=C(/CCC(F)F)c2ccccc2)c2ccc(O)cc2)cc1.Cl | 77
CCN(CC)CCOc1ccc(/C(=C(/CCCO)c2ccccc2)c2ccc(O)cc2)cc1.Cl | 18
CN(C)CCOc1ccc(/C(=C(/CCCF)c2ccccc2)c2ccc(O)cc2)cc1.Cl | 72

Test system: not listed separately
Assay: in vitro
Conditions: rat, liver microsomes
Description: Metabolic stability in rat liver microsomes assessed as compound remaining at 1 uM after 30 mins in presence of NADPH by LC-MS/MS analysis

SMILES | remaining at 0.5 h, 1 µM [%]
CN(C)CCCOc1ccc(/C(=C(/CCCO)c2ccccc2)c2ccc(O)cc2)cc1.Cl | 19
CN(C)CCOc1ccc(/C(=C(/CCC(F)F)c2ccccc2)c2ccc(O)cc2)cc1.Cl | 66
CCN(CC)CCOc1ccc(/C(=C(/CCCO)c2ccccc2)c2ccc(O)cc2)cc1.Cl | 32
CN(C)CCOc1ccc(/C(=C(/CCCF)c2ccccc2)c2ccc(O)cc2)cc1.Cl | 35

Test system: not listed separately
Assay: in vitro
Conditions: mouse, liver microsomes
Description: Metabolic stability in mouse liver microsomes assessed as compound remaining at 1 uM after 30 mins in presence of NADPH by LC-MS/MS analysis

SMILES | remaining at 0.5 h, 1 µM [%]
CN(C)CCCOc1ccc(/C(=C(/CCCO)c2ccccc2)c2ccc(O)cc2)cc1.Cl | 13
CN(C)CCOc1ccc(/C(=C(/CCC(F)F)c2ccccc2)c2ccc(O)cc2)cc1.Cl | 91
CCN(CC)CCOc1ccc(/C(=C(/CCCO)c2ccccc2)c2ccc(O)cc2)cc1.Cl | 10
CN(C)CCOc1ccc(/C(=C(/CCCF)c2ccccc2)c2ccc(O)cc2)cc1.Cl | 24
